Activity calls are given as the source filed them. The rule behind the calls is not given here.
Key:
[1] = test system: Hep 3B2; assay: Induction of autophagic flux in human Hep3B cells harbouring mCherry-egfp-LC3 assessed as increase in yellow puncta ratio at 10 nM by fluorescence imaging based assay; type: functional, cell-based
[2] = test system: Huh-7; assay: Induction of apoptosis in human Huh-7 cells assessed as decrease in bcl-2 level at 10 nM incubated for 48 hrs in presence of gamabufotalin by immunoblot analysis; type: functional, cell-based
[3] = test system: Hep 3B2; assay: Induction of apoptosis in human Hep3B cells assessed as viable cells at 10 nM incubated for 48 hrs by Annexin V-FITC/PI staining based flow cytometry method (reference value: 94.0%); type: functional; conditions: read-out: Activity
[4] = test system: Hep 3B2; assay: Induction of apoptosis in human Hep3B cells assessed as early apoptotic cells at 10 nM incubated for 48 hrs by Annexin V-FITC/PI staining based flow cytometry method (reference value: 1.3%); type: functional
[5] = test system: Hep 3B2; assay: Induction of apoptosis in human Hep3B cells assessed as increase in PARP level at 10 nM incubated for 48 hrs in presence of gamabufotalin by immunoblot analysis; type: functional, cell-based
[6] = test system: Hep 3B2; assay: Induction of apoptosis in human Hep3B cells assessed as necrotic cells at 10 nM incubated for 48 hrs by Annexin V-FITC/PI staining based flow cytometry method (reference value: 1.2%); type: functional
[7] = test system: Hep 3B2; assay: Induction of apoptosis in human Hep3B cells assessed as necrotic cells at 10 nM incubated for 48 hrs in presence of gamabufotalin by Annexin V-FITC/PI staining based flow cytometry method (reference value: 1.2%); type: functional
[8] = test system: Hep 3B2; assay: Induction of morphological changes in human Hep3B cells assessed as round cell morphology at upto 25 nM incubated for 48 hrs by bright field imaging analysis; type: functional, cell-based
[9] = test system: Huh-7; assay: Induction of apoptosis in human Huh-7 cells assessed as necrotic cells at 20 nM incubated for 48 hrs by Annexin V-FITC/PI staining based flow cytometry method (reference value: 0.7%); type: functional
[10] = test system: Hep 3B2; assay: Induction of autophagic flux in human Hep3B cells assessed as increase in LC3-I expression at upto 25 nM incubated for 48 hrs by Western blot analysis; type: functional, cell-based
[11] = test system: Hep 3B2; assay: Induction of apoptosis in human Hep3B cells assessed as viable cells at 25 nM incubated for 48 hrs by Annexin V-FITC/PI staining based flow cytometry method (reference value: 93.3%); type: functional; conditions: read-out: Activity
[12] = test system: Huh-7; assay: Induction of apoptosis in human Huh-7 cells assessed as viable cells at 25 nM incubated for 48 hrs by Annexin V-FITC/PI staining based flow cytometry method (reference value: 90.0%); type: functional; conditions: read-out: Activity
[13] = test system: Hep 3B2; assay: Induction of autophagic flux in human Hep3B cells assessed as rescue of p62 at 25 uM incubated for 48 hrs in presence of chloroquine by Western blot analysis; type: functional, cell-based
[14] = test system: Huh-7; assay: Induction of apoptosis in human Huh-7 cells assessed as late apoptotic cells at 20 nM incubated for 48 hrs by Annexin V-FITC/PI staining based flow cytometry method (reference value: 2.2%); type: functional
[15] = test system: Hep 3B2; assay: Induction of apoptosis in human Hep3B cells assessed as increase in cleaved caspase-3 level at 25 nM incubated for 48 hrs in presence of chloroquine by immunoblot analysis; type: functional, cell-based
[16] = test system: Hep 3B2; assay: Induction of apoptosis in human Hep3B cells assessed as late apoptotic cells at 25 nM incubated for 48 hrs in presence of chloroquine by Annexin V-FITC/PI staining based flow cytometry method (reference value: 3.5%); type: functional
[17] = test system: Huh-7; assay: Induction of apoptosis in human Huh-7 cells assessed as early apoptotic cells at 25 nM measured after 48 hrs by annexin V-FITC/Propidium iodide staining based flow cytometric analysis (reference value: 2.2%); type: functional
[18] = test system: Hep 3B2; assay: Induction of apoptosis in human Hep3B cells assessed as necrotic cells at 25 nM incubated for 48 hrs by Annexin V-FITC/PI staining based flow cytometry method (reference value: 0.2%); type: functional
[19] = test system: Hep 3B2; assay: Induction of apoptosis in human Hep3B cells assessed as late apoptotic cells at 25 nM incubated for 48 hrs by Annexin V-FITC/PI staining based flow cytometry method (reference value: 2.6%); type: functional
[20] = Toxicity in mouse assessed as effect on liver at 5 mg/kg,ip administered every second day for 3 weeks by H and E staining based microscopic method; type: organism-based; conditions: in vivo, 504 h
[21] = test system: Huh-7; assay: Induction of apoptosis in human Huh-7 cells assessed as necrotic cells at 20 nM incubated for 48 hrs by Annexin V-FITC/PI staining based flow cytometry method (reference value: 95.4%); type: functional
[22] = test system: Hep 3B2; assay: Induction of apoptosis in human Hep3B cells assessed as necrotic cells at 25 nM measured after 48 hrs by annexin V-FITC/Propidium iodide staining based flow cytometric analysis (reference value: 0.3%); type: functional
[23] = test system: Huh-7; assay: Induction of autophagy in human Huh-7 cells assessed as restoration of mTOR phosphorylation expression at 25 uM incubated for 48 hrs in presence of 4,6-dimorpholino-N-(4-nitrophenyl)-1,3,5-triazin-2-amine by immunoblot analysis; type: functional, cell-based
[24] = test system: Huh-7; assay: Induction of apoptosis in human Huh-7 cells assessed as upregulation of PARP level […] incubated for 48 hrs in presence of 4,6-dimorpholino-N-(4-nitrophenyl)-1,3,5-triazin-2-amine by immunoblot analysis; type: functional, cell-based
[25] = test system: Hep 3B2; assay: Induction of autophagic flux in human Hep3B cells harbouring mCherry-egfp-LC3 assessed as reduction in number of red puncta ratio at 25 nM incubated for 15 mins in presence of chloroquine by laser scanning confocal microscopic analysis; type: functional, cell-based
[26] = test system: Huh-7; assay: Induction of autophagy in human Huh-7 cells assessed as restoration of ULK1 phosphorylation expression at 25 uM incubated for 48 hrs in presence of 4,6-dimorpholino-N-(4-nitrophenyl)-1,3,5-triazin-2-amine by immunoblot analysis; type: functional, cell-based
[27] = test system: Hep 3B2; assay: Induction of apoptosis in human Hep3B cells assessed as increase in cleaved caspase-3 expression at upto 25 nM incubated for 48 hrs by Western blot analysis; type: functional, cell-based
[28] = Toxicity in mouse assessed as effect on lungs at 5 mg/kg,ip administered every second day for 3 weeks by H and E staining based microscopic method; type: organism-based; conditions: in vivo, 504 h
[29] = test system: Hep 3B2; assay: Induction of apoptosis in human Hep3B cells assessed as early apoptotic cells at 25 nM incubated for 48 hrs by Annexin V-FITC/PI staining based flow cytometry method (reference value: 1.3%); type: functional
[30] = Toxicity in mouse assessed as effect on spleen at 5 mg/kg,ip administered every second day for 3 weeks by H and E staining based microscopic method; type: organism-based; conditions: in vivo, 504 h
[31] = test system: Huh-7; assay: Induction of apoptosis in human Huh-7 cells assessed as necrotic cells at 25 nM incubated for 48 hrs by Annexin V-FITC/PI staining based flow cytometry method (reference value: 1.9%); type: functional
[32] = test system: Huh-7; assay: Induction of apoptosis in human Huh-7 cells assessed as upregulation of caspase-3 level […] incubated for 48 hrs in presence of 4,6-dimorpholino-N-(4-nitrophenyl)-1,3,5-triazin-2-amine by immunoblot analysis; type: functional, cell-based
[33] = test system: Hep 3B2; assay: Induction of apoptosis in human Hep3B cells assessed as viable cells at 15 nM incubated for 48 hrs by Annexin V-FITC/PI staining based flow cytometry method (reference value: 93.3%); type: functional; conditions: read-out: Activity

CCN(CC)CCCC(C)Nc1ccnc2cc(Cl)ccc12 (stereo not drawn) [CHLOROQUINE]
Activity [1]: Active | Activity [2]: Active | viability at 0.01 µM [3]: 93.6% | Activity [4]: 1.5% | Activity [5]: Active | Activity [6]: 0.4% | Activity [7]: 0.8%

C[C@]12CC[C@H](O)C[C@H]1CC[C@@H]1[C@@H]2[C@H](O)C[C@]2(C)[C@@H](c3ccc(=O)oc3)CC[C@]12O [GAMABUFOTALIN]
Activity [8]: Active | Activity [9]: 4.9% | Activity [10]: Active | viability at 0.025 µM [11]: 84.9% | viability at 0.025 µM [12]: 81.5% | Activity [13]: Active | Activity [14]: 28.8% | Activity [15]: Active | Activity [16]: 17.4% | Activity [17]: 6.6% | Activity [18]: 0.6% | Activity [19]: 5.2% | Activity [20]: Non-Toxic | Activity [21]: 60.8% | Activity [22]: 0.6% | Activity [23]: Active | Activity [24]: Active | Activity [25]: Active | Activity [26]: Active | Activity [27]: Active | Activity [28]: Non-Toxic | Activity [29]: 14.3% | Activity [30]: Non-Toxic | Activity [31]: 2.1% | Activity [32]: Active | viability at 0.015 µM [33]: 88.2%
